From patent US8507219B2, “Method of treating inflammation with statins” (MUSC Foundation for Research Development, priority 1997, dated 2013)
Entries after “also recorded” stand apart in the source; their conditions may differ. Read-outs that look alike come from different tables or passages of the source.

Experiments:
[1] = tested on: ceramide production in rat primary astrocytes; assay: Degradation of sphingomyelin to ceramide (DAG kinase assay, HPTLC) in rat primary astrocytes; format: cell-based
Procedure: Lipid extraction Approximately 1.0×10^6 cells were exposed to different cytokines in the presence or absence of antioxidants for different periods and lipids were extracted according to the methods described by Welsh (1996).
Quantification of sphingomyelin by HPTLC and densitometry Sphingomyelin was separated from total lipid extracts by HPTLC (LPK-plates from Whatman Labsales, USA) as described (Ganser et al., 1988) for phospholipids with the modification, that the plate was overrun for 30 min during its development and was dried overnight in vacuum desicator. Sphingomyelin was quantitated by densitometric scanning using Imaging Densitometer (Model GS-670; Bio-Rad, USA) and software provided with the instrument by the manufacturer.
Quantification of ceramide levels by diacylglycerol kinase assay Ceramide content was quantified essentially according to Priess et al. using diacylglycerol (DAG) kinase and [γ-^32P]ATP (Priess et al., 1986). Briefly, dried lipids were solubilized in 20 μl of an octyl β-D-glucoside/cardiolipin solution (7.5% octyl β-D-glucoside, 5 mM cardiolipin in 1 mM DTPA) by sonication in a sonicator bath. […] The labeled ceramide 1-phosphate was resolved with a solvent system consisting of methyl acetate: n-propanol:chloroform:methanol:0.25% KCl in water:acetic-acid (100:100:100:40:36:2). A standard sample of ceramide was phosphorylated under identical conditions and developed in parallel. […] Quantification of ceramide 1-phosphate was carried out by autoradiography and densitometric scanning using Imaging Densitometer (Model GS-670; Bio-Rad, USA). Values are expressed either as arbitrary units (absorbance) or as percent change.
Lipid Extraction Approximately 1.0×10^6 cells were exposed to different cytokines in the presence or absence of antioxidants for different periods, and lipids were extracted according to the methods described by Welsh (1996).
Quantification of Sphingomyelin by High Performance TLC and Densitometry Sphingomyelin was separated from total lipid extracts by high performance TLC (LHPK plates from Whatman) as described by Ganser et al. (1988) for phospholipids with the following modification: the plate was overrun for 30 min during its development and was dried overnight in vacuum desiccator. Sphingomyelin was quantitated by densitometric scanning using Imaging Densitometer (model GS-670; Bio-Rad), and software was provided with the instrument by the manufacturer.
Quantification of Ceramide Levels by Diacylglycerol Kinase Assay Ceramide content was quantified essentially according to Priess et al. (1986) using diacylglycerol (DAG) kinase and [γ-^32P]ATP. Briefly, dried lipids were solubilized in 20 μl of an octyl β-D-glucoside/cardiolipin solution (7.5% octyl β-D-glucoside, 5 mM cardiolipin in 1 mM DTPA) by sonication in a sonicator bath. […] The labeled ceramide-1-phosphate was resolved with a solvent system consisting of methyl acetate:n-propyl alcohol:chloroform:methanol, 0.25% KCl in water:acetic acid (100:100:100:40:36:2). A standard sample of ceramide was phosphorylated under identical conditions and developed in parallel. […] Quantification of ceramide-1-phosphate was carried out by autoradiography and densitometric scanning using Imaging Densitometer (model GS-670; Bio-Rad). Values are expressed either as arbitrary units (absorbance) or as percent change.

[2] = tested on: cultured skin fibroblasts of X-ALD; assay: β-oxidation of lignoceric acid in cultured skin fibroblasts of X-ALD; format: cell-based, human; conditions: etomoxir, inhibitor of mitochondrial β-oxidation
iNOS = assay: Expression of iNOS protein (immunoblot) and mRNA (Northern) in rat primary astrocytes; format: cell-based
Procedure: (§1) Immunoblot analysis for iNOS Following 24 h incubation in the presence or absence of stimuli by different cytokines or LPS, macrophages were scraped off, washed with Hank's buffer, and homogenized in 50 mM Tris-HCl (pH 7.4) containing protease inhibitors (1 nM PMSF, 5 μg/ml aprotinin, 5 μg/ml pepstatin A, and 5 μg/ml leupeptin). After electrophoresis the proteins were transferred onto a nitrocellulose membrane, and the iNOS band was visualized by immunoblotting with antibodies against mouse macrophage iNOS and [^125I]-labeled protein A (Singh et al., 1988).
RNA isolation, Northern blot analysis, and reverse-transcriptase coupled polymerase chain reaction (RT-PCR) Stimulated peritoneal macrophages were taken out from culture dishes directly by adding Ultraspec-II RNA reagent (Biotecx Laboratories Inc.) and total RNA was isolated according to the manufacturer's protocol. For northern blot analyses, 20 μg of total RNA was electrophoresed on 1.2% denaturing formaldehyde-agarose gels, electrotransferred to Hybond-Nylon Membrane (Amersham) and hybridized at 68° C. with ^32P-labeled cDNA probe using Express Hyb hybridization solution (Clontech) as described by the manufacturer. […]; After hybridization filters were washed two to three times in solution I (2×SSC, 0.05% SDS) for 1 h at room temperature followed by solution II (0.1×SSC, 0.1% SDS) at 50° C. for another hour. The membranes were then dried and exposed to X-ray film (Kodak). The same filters were stripped and rehybridized with probes for GAPDH. The relative mRNA content for iNOS was measured after scanning the bands with a Biorad (Model GS-670) imaging densitometer.
as §1, with “of” for “of stimuli by”, “stimuli, cells” for “cytokines or LPS, macrophages”, “inhibitors.” for “inhibitors (1 nM PMSF, 5 μg/ml aprotinin, 5 μg/ml pepstatin A, and 5 μg/ml leupeptin).”, “A.” for “A (Singh et al., 1988).”
RNA isolation and Northern blot analysis Cells were taken out from culture dishes directly by adding Ultraspec-II RNA reagent (Biotecx Laboratories Inc.) and total RNA was isolated according to the manufacturer's protocol. For Northern blot analyses, 20 μg of total RNA was electrophoresed on 1.2% denaturing formaldehyde-agarose gels, electrotransferred to Hybond-Nylon Membrane (Amersham) and hybridized at 68° C. with ^32P-labeled cDNA probe using Express Hyb hybridization solution (Clontech) as described by the manufacturer. […]; After hybridization filters were washed two or three times in solution I (2×SSC, 0.05% SDS) for one hour at room temperature followed by solution II (0.1×SSC, 0.1% SDS) at 50° C. for another hour. The membranes were then dried and exposed with X-ray films (Kodak). The same filters were stripped and rehybridized with probes for GAPDH. The relative mRNA content for iNOS was measured after scanning the bands with a Biorad (Model GS-670) imaging densitometer.
as §1, with “After a” for “Following”, “of” for “of stimuli by”, “stimuli, cells” for “cytokines or LPS, macrophages”, “mM” for “nM”, “A.” for “A (Singh et al., 1988).”
RNA isolation and Northern blot analysis Cells were taken out from culture dishes directly by adding Ultraspec-II RNA reagent (Biotecx Laboratories Inc., Houston, Tex.), and total RNA was isolated according to the manufacturer's protocol. […]

[3] = tested on: NO production in rat resident macrophages; assay: LPS-/cytokine-induced NO production (nitrite) in rat resident peritoneal macrophages; format: cell-based
Procedure: Isolation of Rat Macrophages and Induction of NO Production Resident macrophages were obtained from rats by peritoneal lavage with sterile RPMI 1640 medium containing 1% fetal bovine serum and 100 μg/ml gentamicin (Wang et al., 1995). Cells were washed three times with RPMI 1640 at 4° C. All cell cultures were maintained at 37° C. in a humidified incubator containing 5% CO2 in air. Macrophages, at a concentration of 2×10^6/ml in RPMI 1640 medium containing L-glutamine and gentamicin, were added in volumes of 800 μl to a 35 mm plate. After 1 h, nonadherent cells were removed by washing and 800 μl of serum-free RPMI 1640 medium with various stimuli were added to the adherent cells. After 24 h incubation in 5% CO2 in air at 37° C., the culture supernatants were transferred to measure NO production (Geng et al., 1995; Wang et al., 1995).
Isolation of rat macrophages and induction of NO production Resident macrophages were obtained from rat by peritoneal lavage with sterile RPMI 1640 medium containing 1% fetal bovine serum and 100 μg/ml gentamicin as described herein. Cells were washed three times with RPMI 1640 at 4° C. All cell cultures were maintained at 37° C. in a humidified incubator containing 5% CO2 in air. Macrophages at a concentration of 2×10^6/ml in RPMI 1640 medium containing L-glutamine and gentamicin were added in volumes of 800 μl to a 35 mm plate. After 1 h, nonadherent cells were removed by washing and 800 μl of serum-free RPMI 1640 medium with various stimuli were added to the adherent cells. After incubation in 5% CO2 in air at 37° C., culture supernatants were transferred to measure NO production.
Isolation of rat macrophages and induction of NO production Resident macrophages were obtained from rat by peritoneal lavage with sterile RPMI 1640 medium containing 1% FBS and 100 μg/ml gentamicin. Cells were washed three times with RPMI 1640 at 4° C., and were maintained at 37° C. in a humidified incubator containing 5% CO2 in air. Macrophages at a concentration of […] in RPMI 1640 medium containing L-glutamine and gentamicin were added in volumes of 800 μl to a 35-mm plate. After 1 h, nonadherent cells were removed by washing, and 800 μl of serum-free RPMI 1640 medium with various stimuli was added to the adherent cells. After 24 h the culture supernatants were transferred to measure NO production.
Protein was measured (Bradford, 1976).

[4] = 100 μM mevalonate, 200 μM farnesyl pyrophosphate, 10 μM ubiquinone or cholesterol

Nc1nc[nH]n1 [ATZ, aminotriazole]
increase in ceramide production [1]: more than 5 fold

CCOC(=O)[C@@]1(CCCCCCOc2ccc(Cl)cc2)CO1 [Etomoxir]
effect on stimulated lignoceric acid β-oxidation [2]: had no effect on cAMP-mediated stimulation of lignoceric acid β-oxidation; also recorded: had no effect on lovastatin- or NaPA-mediated stimulation of lignoceric acid β-oxidation

CC(C)=CCC/C(C)=C/CC/C(C)=C/COP(=O)(O)OP(=O)(O)O [FPP, farnesyl pyrophosphate]
rescue of the inhibition of iNOS expression and NF-kβ activation by lovastatin / NaPA (iNOS): substantially reversed the inhibitory effect of lovastatin

OO [H2O2, hydrogen peroxide]
increase in ceramide production [1]: about 7 fold

CNC(=N)NCCC[C@H](N)C(=O)O [L-NMA, N^G-methyl-L-arginine]
Nitrite ([3]; LPS 1.0 μg/ml, 24 h, NAC 20 mM 2 h before LPS, NMA 0.1 mM, arginase 100 units/ml with LPS): 15.8 ± 2.2 nmol/mg Protein^24h | Inhibition (%) ([3]; of LPS (1.0 μg/ml)-induced nitrite, NAC 20 mM 2 h before, NMA 0.1 mM, arginase 100 units/ml with LPS): 87%

CC(=O)O [acetate]
degradation of sphingomyelin to ceramide / ceramide production [1]: had no effect on the degradation of SM to ceramide

CCCCS(=N)(=O)CCC(N)C(=O)O [buthione (S,R)-sulfoximine]
degradation of sphingomyelin to ceramide / ceramide production [1]: also decreased the level of GSH and induced the production of ceramide

C[C@@]12C(=O)OC(=O)[C@]1(C)[C@H]1CC[C@@H]2O1 [cantharidin]
LPS-induced NO production ([3]; LPS 1.0 μg/ml, 24 h): inhibited the LPS-induced NO production in rat peritoneal macrophages | LPS-mediated induction of iNOS protein and mRNA (iNOS; LPS 1.0 μg/ml): enhanced the LPS-mediated induction of iNOS protein and mRNA

CC(C)CCC[C@@H](C)[C@H]1CC[C@H]2[C@@H]3CC=C4C[C@@H](O)CC[C@]4(C)[C@H]3CC[C@]12C [cholesterol]
rescue of the inhibition of iNOS expression and NF-kβ activation by lovastatin / NaPA (iNOS; [4]): did not prevent the inhibitory effect of lovastatin and NaPA

CC(O)(CCO)CC(=O)O (centres unmarked) [mevalonate]
rescue of the inhibition of iNOS expression and NF-kβ activation by lovastatin / NaPA (iNOS): substantially reversed the inhibitory effect of lovastatin

COC1=C(OC)C(=O)C(C/C=C(\C)CC/C=C(\C)CC/C=C(\C)CC/C=C(\C)CC/C=C(\C)CC/C=C(\C)CC/C=C(\C)CC/C=C(\C)CC/C=C(\C)CCC=C(C)C)=C(C)C1=O [ubiquinone]
rescue of the inhibition of iNOS expression and NF-kβ activation by lovastatin / NaPA (iNOS; [4]): did not prevent the inhibitory effect of lovastatin and NaPA

Microcystin
LPS-mediated induction of iNOS protein and mRNA (iNOS): enhanced the LPS-mediated induction of iNOS protein and mRNA
